We go through 8 compounds from publication PMC7464503, “Antioxidant and Antibacterial Properties of Carbosilane Dendrimers Functionalized with Polyphenolic Moieties” (Pharmaceutics, 2020).

≈ marks a conversion by molar mass, not a printed value.

By viability is commonly meant the share of living cells, or the viability signal relative to a control. Low values mean more harm to the cells, high ones less harm to the cells.

The nature of data set [1]: Cyclic voltammetry, electrochemical characterization of the antioxidant capacity. It counts as physicochemical. The following applies: for Ep (peak potential) / Ip (peak intensity) / ΔEp (difference between anodic and cathodic peak): glassy carbon electrode, ± SD of three measurements; for Ep (peak potential): 20 mM acetate buffer pH 3.6, vs Ag|AgCl|KCl (3M); for Ip (peak intensity) / ΔEp (difference between anodic and cathodic peak): 20 mM acetate buffer pH 3.6. As to the method:
Electrochemical measurements were carried out on an Autolab PGSTAT 12 potentiostat from Metrohm (Utrecht, The Netherlands), employing a glassy carbon (GC) disk working electrode. The GC electrode was polished after each measurement using a 0.1 and 0.05 µm alumina/water slurry until a shiny mirror-like finish was achieved, and washed with ultrapure water. Electrodes were modified with 1 mM solutions of each compound (L, G1, and G2) in MeOH; 5 µL drops were drop-cast in the electrode and allowed to dry before the measurements. Electrochemical measurements were performed in a 20 mM acetate buffer solution (pH 3.6), employing an Ag|AgCl|KCl (3M) reference electrode and a platinum wire as a counterelectrode.
Electrochemical characterization of the antioxidant capacity: The electrochemical behavior of the synthesized polyphenolic dendrimers (1–6), together with the free polyphenol (L), has been investigated using cyclic voltammetry (CV). CV is a powerful electrochemical technique that can be employed to study the ability of a molecule to undergo electron transfer and to estimate the antioxidant activity through the peak potential (Ep), intensity (ip), and reversibility (ΔEp). A lowering in the Ep or ΔEp and an increase in the ip are indicative of higher antioxidant activity.

The subject of data set [2] is Staphylococcus aureus (CECT 240). The data set can be described thus: In vitro antibacterial activity (ISO 20776-1:2006), turbidity at 625 nm. The format is cell-based. The following applies: CECT240, S. aureus, 24 h at 37 °C, 1% DMSO, tested up to 16 ppm; for IC50: read-out: MIC50; for IC80: read-out: MIC80. As to the method: (§1) In vitro antibacterial analysis of dendritic polyphenols was performed following the international standard method ISO 20776-1:2006 [22]. The antibacterial activity was assayed in two different bacteria, Escherichia coli (CECT 515) and Staphylococcus aureus (CECT 240), both obtained from the Spanish Type Culture Collection in lyophilized form. The biocide solutions were prepared following the EUCAST (European Committee for Antimicrobial Susceptibility Testing) protocol for hydrophobic compounds. For this purpose, stock solutions in DMSO of each compound were made and then, subsequent dilutions in Mueller-Hinton […] (Scharlau, ref. 02–136) were developed to obtain the testing concentrations (from 0.0312 ppm to 16 ppm) with 1% of DMSO. The assay was carried out in 96-well plates, with two different wells for each concentration and with different controls (biocide, inoculum, culture medium, and DMSO). The bacteria were inoculated at a concentration of 10^5 CFU/mL in wells. After 24 h of incubation with biocides at 37 °C, the increase of turbidity at 625 nm was determined using an Ultra Microplate reader (BIO-TECK Instruments, model ELx808). MIC50 and MIC80 values were the concentrations of the compounds with an optical density of 50% and 20% compared to nontreated bacteria.

The subject of data set [3] is Escherichia coli (CECT 515). Described as above. The following applies: CECT515, E. coli, 24 h at 37 °C, 1% DMSO, tested up to 16 ppm, read-out: MIC50. It counts as cell-based. As to the method: as §1
The nature of data set [4]: Cell viability by MTT assay. It counts as cell-based, human. The following applies: human; for viability at 24 h, 16 ppm: HFF-1, 16 ppm; for viability at 24 h, 8 ppm: HFF-1, 8 ppm. As to the method:
(§2) HFF-1 cells were grown routinely in DMEM (Dulbecco’s modified Eagle’s medium, Sigma Aldrich, St. Louis, MO, USA, ref. D6429) supplemented with 10% fetal bovine serum (FBS, Sigma Aldrich, ref. F7524) and 1% penicillin/streptomycin/amphotericin B (Sigma Aldrich, ref. A5955) at 37 °C and 5% CO2. Cells were seeded in 96-well plates (Nunclon Delta Surface, Thermo Fischer Scientific, Waltham, MA, USA; 8 × 10^3 cells per well) and grown in a complete DMEM medium for 24 h. Cell viability was determined by MTT assay (MTT, 3-(4,5-dimethyl-2-thiazolyl)-2,5-diphenyl-2H-tetrazolium bromide). A stock compound solution was prepared in DMSO. Then, dilutions in cell culture were made to obtain the final concentrations with 1% of DMSO per well. […] After incubation, MTT was added at a concentration of 5 mg/mL and plates were incubated for 3 h. Finally, the culture medium was removed and the purple formazan crystals formed by the mitochondrial dehydrogenase and reductase activity of vital cells were dissolved in DMSO. The optical density, directly proportional to the number of surviving cells, was quantified at 570/630 nm in a spectrophotometer BioTEK 800 (Izasa). The assay was carried out in triplicate, with eight different wells for each concentration and with different controls (culture medium and DMSO).

Data set [5] in a line: DPPH free radical-scavenging assay. The following applies: stated as the same activity as the cited polyether dendrimers. As to the method:
This method involves the radical concentration reduction by the antioxidant agent, which entails absorbance reduction and increasing compound concentration. When antioxidants are mixed with DPPH solution, the color turns from purple to yellow, with the maximum absorption at 530 nm. The ability of dendritic polyphenols to scavenge the DPPH radical was evaluated. An aliquot of 100 µL of different stock sample concentrations in the range of 0.01 and 100 µM in methanol was added to a volume of 900 µL of a DPPH stock solution (0.12 mM) in a DMSO/H2O (1:1) mixture. The mixture was shaken, kept in the dark at room temperature, and recorded at 530 nm every 5 min up to 30 min. The blank was constituted by methanol instead of the sample.
The IC50 of DPPH scavenging activity and EC50 of FRAP capacities were calculated following similar protocols. Firstly, for each concentration, it was necessary to calculate the DPPH remnant, as well as the Fe(II) that formed, through the following equations: 1. DPPHREM(%)=(As/Ac)×100 2. Fe(II)FOR(%)=(As−Ac/Ac)×100 where REM = remnant, FOR = formed, As = Sample absorbance, and Ac = Control absorbance. The graphical representation of the percentage of the remnant or formed reagent versus the −log[X] […] The results are expressed as mean ± SEM and are representative of at least three independent experiments.
(DPPH is a stable violet radical that fades when it is reduced.)

Data set [6] deals with HFF-1 cells. Kind of data set: Cell viability by MTT assay. The format is cell-based, human. The following applies: HFF-1, 16 ppm, 24 h. As to the method:
as §2
A general note: Tetrazolium assays rely on reduction of a dye to a coloured formazan, in cell work by metabolically active cells.

Setting [7] is: G2 compared to free polyphenol L.

With `O=C(O)/C=C/c1ccc(O)c(O)c1` [Caffeic L, reference compound], in data set [1], the “Ep (peak potential)” value is 0.263 ± 0.005 V; the “Ip (peak intensity)” value is listed as 2.91 ± 0.07 µA; the “ΔEp (difference between anodic and cathodic peak)” value turned out to be 0.205 ± 0.002 V. Further, in data set [2], the IC50 was more than 16 µg/mL and the IC80 is more than 16 µg/mL. Also, the IC50 in data set [3] was more than 16 µg/mL.
In the case of `COc1cc(C=CC(=O)O)ccc1O` [Ferulic L, 3-(4-hydroxy-3-methoxyphenyl)-2-propenoic acid, reference compound], in data set [1], the “Ep (peak potential)” value was found to be 0.686 ± 0.009 V and the “Ip (peak intensity)” value worked out at 3.70 ± 0.08 µA. In data set [2], the IC50 is more than 16 µg/mL and the IC80 is more than 16 µg/mL. In addition, the IC50 in data set [3] was more than 16 µg/mL.
Regarding `COc1cc(/C=C/C(=O)NCCC[Si](C)(C)CCC[Si](CCC[Si](C)(C)CCCNC(=O)/C=C/c2ccc(O)c(OC)c2)(CCC[Si](C)(C)CCCNC(=O)/C=C/c2ccc(O)c(OC)c2)CCC[Si](C)(C)CCCNC(=O)/C=C/c2ccc(O)c(OC)c2)ccc1O` [G1 (1), G1-[Si(CH2)3NH(CO)CH=CHCH2Ph(OH)(OCH3))]4], in data set [1], the “Ep (peak potential)” value was determined as 0.637 ± 0.002 V and the “Ip (peak intensity)” value was found to be 0.75 ± 0.06 µA. For the same compound, in data set [2], the IC50 was more than 16 µg/mL and the IC80 is more than 16 µg/mL. Moreover, in data set [3], the IC50 was more than 16 µg/mL. The compound also had a viability at 24 h, 16 ppm in data set [4] of 95.4 ± 6.6%.
In turn, `C[Si](C)(CCCNC(=O)/C=C/c1ccc(O)c(O)c1)CCC[Si](CCC[Si](C)(C)CCCNC(=O)/C=C/c1ccc(O)c(O)c1)(CCC[Si](C)(C)CCCNC(=O)/C=C/c1ccc(O)c(O)c1)CCC[Si](C)(C)CCCNC(=O)/C=C/c1ccc(O)c(O)c1` [G1 (2), G1-[Si(CH2)3NH(CO)CH=CHCH2Ph(OH)2)]4] registered an IC50 in data set [5] of approximately 5 µM. For the same compound, in data set [1], the “Ep (peak potential)” value was found to be 0.276 ± 0.009 V; the “Ip (peak intensity)” value turned out to be 1.39 ± 0.04 µA; the “ΔEp (difference between anodic and cathodic peak)” value came out at 0.188 ± 0.006 V. In data set [2], the IC50 worked out at 8 µg/mL (≈ 6.11 µM) and the IC80 turned out to be 16 µg/mL (≈ 12.2 µM). Besides, the IC50 in data set [3] was more than 16 µg/mL. In data set [4], this compound registered a viability at 24 h, 8 ppm of 98.8 ± 1.7% and a viability at 24 h, 16 ppm of 100%.
As for `C[Si](C)(CCCNC(=O)c1cc(O)c(O)c(O)c1)CCC[Si](CCC[Si](C)(C)CCCNC(=O)c1cc(O)c(O)c(O)c1)(CCC[Si](C)(C)CCCNC(=O)c1cc(O)c(O)c(O)c1)CCC[Si](C)(C)CCCNC(=O)c1cc(O)c(O)c(O)c1` [G1 (3), G1-[Si(CH2)3NH(CO)Ph(OH)3]4], in data set [1], the “Ep (peak potential)” value is on record as 0.410 ± 0.008 V and the “Ip (peak intensity)” value was 4.12 ± 0.07 µA. Further, in data set [2], the IC50 was 4 µg/mL (≈ 3.15 µM) and the IC80 was determined as 8 µg/mL (≈ 6.3 µM). Also, the IC50 in data set [3] turned out to be 16 µg/mL (≈ 12.6 µM). The viability at 24 h, 4 ppm in data set [4] (HFF-1, 4 ppm) was 84.8 ± 7.5%. In data set [4], this compound returned a viability at 24 h, 8 ppm of 99.1 ± 1%.
`COc1cc(/C=C/C(=O)NCCC[Si](C)(C)CCC[Si](C)(CCC[Si](C)(C)CCCNC(=O)/C=C/c2ccc(O)c(OC)c2)CCC[Si](CCC[Si](C)(CCC[Si](C)(C)CCCNC(=O)/C=C/c2ccc(O)c(OC)c2)CCC[Si](C)(C)CCCNC(=O)/C=C/c2ccc(O)c(OC)c2)(CCC[Si](C)(CCC[Si](C)(C)CCCNC(=O)/C=C/c2ccc(O)c(OC)c2)CCC[Si](C)(C)CCCNC(=O)/C=C/c2ccc(O)c(OC)c2)CCC[Si](C)(CCC[Si](C)(C)CCCNC(=O)/C=C/c2ccc(O)c(OC)c2)CCC[Si](C)(C)CCCNC(=O)/C=C/c2ccc(O)c(OC)c2)ccc1O` [G2 (4), G2-[Si(CH2)3NH(CO)CH=CHCH2Ph(OH)(OCH3))]8]: the “decrease in the Ep compared to L” value in data set [1] (setting [7]) is 73 mV. In data set [1], the “Ep (peak potential)” value turned out to be 0.613 ± 0.008 V and the “Ip (peak intensity)” value turned out to be 0.56 ± 0.02 µA. In data set [2], the IC50 was more than 16 µg/mL and the IC80 was more than 16 µg/mL. In addition, the IC50 in data set [3] is more than 16 µg/mL. The “% Viability” value in data set [6] is 92.9 ± 7.4%.
Turning to `C[Si](C)(CCCNC(=O)/C=C/c1ccc(O)c(O)c1)CCC[Si](C)(CCC[Si](C)(C)CCCNC(=O)/C=C/c1ccc(O)c(O)c1)CCC[Si](CCC[Si](C)(CCC[Si](C)(C)CCCNC(=O)/C=C/c1ccc(O)c(O)c1)CCC[Si](C)(C)CCCNC(=O)/C=C/c1ccc(O)c(O)c1)(CCC[Si](C)(CCC[Si](C)(C)CCCNC(=O)/C=C/c1ccc(O)c(O)c1)CCC[Si](C)(C)CCCNC(=O)/C=C/c1ccc(O)c(O)c1)CCC[Si](C)(CCC[Si](C)(C)CCCNC(=O)/C=C/c1ccc(O)c(O)c1)CCC[Si](C)(C)CCCNC(=O)/C=C/c1ccc(O)c(O)c1` [G2 (5), G2-[Si(CH2)3NH(CO)CH=CHCH2Ph(OH)2)]8], the “decrease in ΔEp compared to L” value in data set [1] (setting [7]) is on record as 85 mV. In data set [1], the “Ep (peak potential)” value was found to be 0.302 ± 0.010 V; the “Ip (peak intensity)” value came to 0.143 ± 0.09 µA; the “ΔEp (difference between anodic and cathodic peak)” value is 0.120 ± 0.009 V. For the same compound, in data set [2], the IC50 was more than 16 µg/mL and the IC80 was more than 16 µg/mL. Moreover, the IC50 in data set [3] is more than 16 µg/mL. Also, the “% Viability” value in data set [6] is recorded as 100.0 ± 0.0%.
`O=C(O)c1cc(O)c(O)c(O)c1` [Gallic L, 3,4,5-trihydroxybenzoic acid, reference compound]: in data set [1], the “Ep (peak potential)” value turned out to be 0.477 ± 0.001 V and the “Ip (peak intensity)” value is given as 3.87 ± 0.08 µA. Besides, in data set [2], the IC50 is more than 16 µg/mL and the IC80 was more than 16 µg/mL. In addition, in data set [3], the IC50 was more than 16 µg/mL.
